The results in this text go back to US8568755B2 (priority 2007, dated 2013).

Where “and” joins values, the source holds several entries; their conditions need not be identical. Identical values can stand only once.

The test system of experiment [1] is Erysiphe graminis. As to the kind of experiment: Test on preventive effect against wheat powdery mildew (Test Example 1). Type of experiment: in vivo.
Experiment [2] concerns Septoria nodorum. As to the kind of experiment: Test on preventive effect against wheat glum bloth (Test Example 3). It is filed as in vivo. Here is the method:
Wheat (cultivar: Norin-61-go) was cultivated in a plastic pot having a diameter of 7.5 cm, and when it reached 1.5-leaf stage, a mixed chemical solution having the respective sample compounds adjusted to prescribed concentrations, was applied by a spray gun in an amount of 10 ml per seedling. After the chemical solution dried, a suspension of conidia of Septoria nodorum was sprayed and inoculated and maintained at 20° C. for 7 days (for the first 3 days maintained under high humidity condition). Thereafter, the area of lesions was investigated, and the diseased area ratio to non-treated section was obtained by the following equation. Diseased area ratio to non-treated section=(a/b)×100
a: Average area of lesions in treated section
b: Average area of lesions in non-treated section
Further, the theoretical value was calculated by a Colby's formula and shown in brackets ( ) in Tables 3-1 to 3-14. Since the diseased area ratio to non-treated section (experimental value) is lower than the theoretical value, the composition of the present invention can be said to have a synergistic effect.

Experiment [3] deals with Botrytis cinerea. As to the kind of experiment: Test on preventive effect against kidney bean gray mold (Test Example 4). Type of experiment: in vivo. The procedure: Kidney bean (cultivar: Taisyou Kintoki) was cultivated in a plastic pot having a diameter of 12.0 cm, and when it reached 2.5-leaf stage, a mixed chemical solution having the respective test compounds adjusted to prescribed concentrations, was applied by a spray gun in an amount of 10 ml per seedling. After the chemical solution dried, the leaf was cut out, and a filter paper disk (8 mm in diameter) was placed on the leaf. Then, 120 μl of a suspension of spores of Botrytis cinerea (1.0×10^6 spores/ml) was dropped thereon and inoculated. The system was maintained under a humidity condition at 20° C. for three days, whereupon the area of lesions was investigated, and the diseased area ratio to non-treated section was obtained in the same manner as in Test Example 3. Further, the theoretical value was calculated by a Colby's formula and shown in brackets ( ) in Tables 4-1 to 4-19. Since the diseased area ratio to non-treated section (experimental value) is lower than the theoretical value, the composition of the present invention can be said to have a synergistic effect.

For experiment [4], the system named is Phyicularia oryzae. It is filed as cell-based.
For experiment [5], the system named is Botrytis cinerea. As to the kind of experiment: Test on antifungal activity against gray mold pathogen, intersecting filter papers (Test Examples 7 and 8). Type of experiment: cell-based. Conditions: single use, filter paper immersed in 30 ppm solution, 20° C. for 4 days.
Experiment [6] has as its system Sphaerotheca fuliginea. It is filed as in vivo.
The test system of experiment [7] is Botrytis cinerea. In words: Test on antifungal activity against gray mold pathogen, mycelial growth on agar (Test Example 6). Type of experiment: cell-based. Here is the method: Mycelial growth of Botrytis cinerea preliminarily obtained by cultivation was punched out by a cork borer having a diameter of 4 mm and transplanted on a potato sucrose agar medium containing mixed chemical agents adjusted to prescribed concentrations. The system was left to stand at 25° C. for 3 days for cultivation, whereupon the diameter of mycelial growth was measured. The incidence to non-treated section was obtained in the same manner as the above Test Example 5, and the results are shown in Table 6-1 to 6-3.
Further, the theoretical value was calculated by a Colby's formula and shown in brackets ( ) in Tables 6-1 to 6-3. Since the incidence to non-treated section is lower than the theoretical value, the composition of the present invention can be said to have a synergistic effect.

As to `Cc1ccsc1C(=O)NC(C)(C)C(=O)c1ccc(Cl)c(Cl)c1` [Compound No. 2, N-[(3′,4′-dichloro-1,1-dimethyl)phenacyl]-3-methyl-2-thiophenecarboxamide], the “diseased area ratio to non-treated section” value is 97.5 and 90.0 in experiment [1] (Compound (a) alone 125 ppm); 95.0 and 75.0 in experiment [1] (Compound (a) alone 250 ppm); 70.0 in experiment [1] (Compound (a) alone 500 ppm). Also, the results for the “diseased area ratio to non-treated section (experimental value)” value in experiment [2] (single use at 12.5 ppm), in experiment [2] (single use at 50 ppm) and in experiment [3] (single use at 4 ppm) were 50.0, 35.0 and 65.0, respectively. Moreover, the “incidence to non-treated section (mycelial growth diameter)” value (“incidence to non-treated section” below) in experiment [4] amounted to 82.6. Further, the “controlling effect (contact of filter paper with mycelial growth area of Botrytis cinerea)” value in experiment [5] was “no adequate controlling effect”.

Take `Cc1cc(OC(C)C)ccc1C(=O)C(C)(C)NC(=O)c1ncccc1C(F)(F)F` [Compound No. 4, N-[[2′-methyl-4′-(2-propyloxy)-1,1-dimethyl]phenacyl]-3-trifluoromethyl-2-pyridinecarboxamide]: the “diseased area ratio to non-treated section” value in experiment [1] (Compound (a) alone 125 ppm) is 5.0 and 3.6; in experiment [1] (Compound (a) alone 250 ppm), 0.6; in experiment [6] (Compound (a) alone 2 ppm), 7.5. Also, the “diseased area ratio to non-treated section (experimental value)” value in experiment [2] (single use at 12.5 ppm) is 35.0; in experiment [2] (single use at 50 ppm) it was 20.0; in experiment [3] (single use at 4 ppm), 70.0 and 79.7; in experiment [3] (single use at 8 ppm) it was 64.6. Also, the “incidence to non-treated section” value in experiment [4] is 69.6 and 71.7; in experiment [7] (single use at 0.5 ppm), 45.2.

Consider `CCCC(C)Oc1ccc(C(=O)C(C)(C)NC(=O)c2ncccc2C(F)(F)F)cc1` (stereo not shown) [Compound No. 11, N-[[4′-(2-pentyloxy)-1,1-dimethyl]phenacyl]-3-trifluoromethyl-2-pyridinecarboxamide], for which the “diseased area ratio to non-treated section (experimental value)” value in experiment [6] (single use at 2 ppm) was 7.5 and 12.5 and 15.0 and 10.0; in experiment [2] (single use at 12.5 ppm), 50.0; in experiment [2] (single use at 50 ppm), 25.0; in experiment [3] (single use at 4 ppm) it was 70.0; in experiment [3] (single use at 8 ppm) it was 55.7. Besides, the “incidence to non-treated section” value was 63.0 and 73.9 in experiment [4]; 46.0 in experiment [7] (single use at 5 ppm); 32.3 in experiment [7] (single use at 50 ppm).
